Assay results published in PMC8155809 (The Journal of General Physiology, 2021).
Values belong to the molecule of their own block, whether it stands above or below them.

Legend:
[1] = target: T1, human TREK-2 (Homo sapiens, UniProt P57789); test: Macroscopic TREK-2 currents in giant excised patches from Xenopus oocytes; assay type: cell-based
T1 construct: expressed in transfected cells; host or cells: Xenopus laevis oocytes injected with in vitro transcribed mRNA (pFAW vector)
T1 sequence (P57789 1-543 isoform P57789-4): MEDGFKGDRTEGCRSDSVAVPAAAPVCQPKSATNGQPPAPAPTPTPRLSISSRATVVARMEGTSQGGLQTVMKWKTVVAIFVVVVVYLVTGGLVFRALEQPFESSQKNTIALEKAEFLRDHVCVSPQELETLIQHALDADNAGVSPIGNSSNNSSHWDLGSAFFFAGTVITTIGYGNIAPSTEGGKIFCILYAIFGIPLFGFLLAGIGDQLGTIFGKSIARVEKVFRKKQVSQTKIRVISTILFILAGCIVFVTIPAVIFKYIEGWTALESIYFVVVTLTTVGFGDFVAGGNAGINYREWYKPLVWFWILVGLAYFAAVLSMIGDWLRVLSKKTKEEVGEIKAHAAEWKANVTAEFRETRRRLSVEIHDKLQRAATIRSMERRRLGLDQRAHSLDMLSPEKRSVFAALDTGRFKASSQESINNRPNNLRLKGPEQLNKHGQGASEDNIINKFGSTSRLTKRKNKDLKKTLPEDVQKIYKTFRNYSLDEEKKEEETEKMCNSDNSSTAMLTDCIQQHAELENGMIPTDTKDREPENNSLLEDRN
Protocol: (§1) Full-length human TREK-2 isoform 3 (NCBI accession no. NP_612191) was used throughout this study and was subcloned into the pFAW vector for expression in oocytes. The truncated construct used to generate protein (TREK-2ΔN/ΔC) is identical to that used previously to obtain crystal structures ([Dong et al., 2015]); it contains a deletion of 71 residues at the N terminus and 213 residues at the C terminus. […] Desamino chloro-fluoxetine (Toronto Research Chemicals) was dissolved in chloroform and diluted to working concentrations on the day of experimenting (maximum final concentration was 0.01%).
Oocytes were prepared for injection of mRNA by collagenase digestion followed by manual defolliculation and stored in ND96 solution that contained (in mM) 96 NaCl, 2 KCl, 1.8 CaCl2, 1 MgCl2, and 10 HEPES (pH 7.4) and was supplemented with 2.5 mM sodium pyruvate 50 µg/ml gentamycin, 50 µg/ml tetracycline, 50 µg/ml ciprofloxacin, and 100 µg/ml amikacin. Cells were injected with 1–4 ng mRNA up to 4 d after isolation. In vitro transcription of mRNA was done using the Amplicap SP6 Kit (Cambio). Experiments were performed 12–24 h after injection at room temperature (22°C unless otherwise indicated). For measurement and comparison of basal whole-cell currents, oocytes were injected with 4 ng RNA and recorded exactly 24 h after injection.
(§2) For currents recorded in Xenopus laevis oocytes, giant-patch electrodes were pulled from thick-walled borosilicate glass and polished to give pipette resistances of ∼0.3–0.5 MΩ when filled with patch solution. Pipette solution contained (in mM) 116 NMDG, 4 KCl, 1 MgCl2, 3.6 CaCl2, and 10 HEPES (pH 7.4), while the bath solution contained (in mM) 120 KCl, 1 NaCl, 2 EGTA, and 10 HEPES (pH 7.3). Patches were perfused via a gravity-flow perfusion system and a HEKA EPC 10 USB single computer–controlled amplifier was used and currents recorded using a Patchmaster v2 × 90.5 (HEKA Electronics), filtered at 1 kHz, and sampled at 10 kHz. For currents recorded in HEK293 cells, patch electrodes were pulled from thick-walled borosilicate glass and polished to give pipette resistances of ∼3–5 MΩ when filled with patch solution. The currents were recorded from excised patches with both intracellular and extracellular solution containing 200 mM KCl and 10 mM HEPES (pH 6.0 with KOH). Patches were perfused via a gravity-flow perfusion system. Data were acquired with pClamp and recorded using an Axopatch 200B (Molecular Devices), filtered at 5 kHz, and sampled at 200 kHz. Single-channel currents were analyzed in an identical manner to those obtained from bilayers (see above).
The macroscopic concentration–inhibition relationships in Figs. 1 and 2 were fitted with a modified Hill equation:
I/I0=a+1−a/1+([X]/IC50)^h, (1) where I and IO are the currents in the presence and absence of inhibitor, respectively, [X] is the concentration of inhibitor, IC50 is the inhibitor concentration at which the inhibition is half maximal, h is the Hill coefficient, and a is the fraction of unblockable current; a = 0, except where indicated in the legend to Fig. 1.
The macroscopic concentration–activation relationships in Fig. 1 E were fitted with a modified Hill equation: I/I0=a+(1−a)([X]/IC50)^h/1+([X]/IC50)^h, (2) where I and IO are the currents in the presence and absence of agonist, respectively, [X] is the concentration of agonist, IC50 is the agonist concentration at which the activation is half maximal, h is the Hill coefficient, and a is the fraction of initial current.

[2] = target: T2, WT TREK-2 (Homo sapiens, UniProt P57789); test: Single-channel recordings of WT TREK-2 in excised patches from HEK293 cells; assay type: cell-based
T2 construct: full-length WT TREK-2 channels, we examined its effects on the mean open time of TREK-2 channels expressed in HEK293 cells; expressed in transfected cells; host or cells: HEK293 cells, transient transfection with pcDNA3
T2 sequence (P57789 1-543 isoform P57789-4): T1 sequence (P57789 1-543 isoform P57789-4)
Protocol: as §1
HEK293 cells were cultured in DMEM (Sigma) containing 10% FBS (Life Technologies), 3 mM glucose, and 2 mM glutamine at 37°C in a humidified atmosphere of 5% CO2/[…] at 37°C. Cells were transiently transfected with 0.2 µg channel pcDNA3 per dish using FuGENE 6 according to the manufacturer’s instructions. Cells were used 1–2 d after transfection.
as §2

h (Hill coefficient), BL1249 activation ([1]; BL1249 on its own): 1.9
h (Hill coefficient), BL1249 activation ([1]; in the presence of NFx): 1.4
SMILES: c1ccc(-c2nn[nH]n2)c(Nc2cccc3c2CCCC3)c1 [BL1249]

PO (single-channel open probability) ([2]; 10 µM, −40 mV): 0.04
reduction in γ (single-channel current amplitude) ([2]; 10 µM, −40 mV (Fig. 6B)): 15 ± 5%
reduction of channel Po ([2]; 10 µM, −40 mV (Fig. 6B)): 75 ± 0.05%
SMILES: FC(F)(F)c1ccc(O[C@@H](CCCl)c2ccccc2)cc1 [desamino chloro-fluoxetine, Desamino chloro-fluoxetine]

mean Po ([2]; 100 µM ML335, absence of NFx, −40 mV): 0.69 ± 0.2
SMILES: CS(=O)(=O)Nc1ccc(C(=O)NCc2ccc(Cl)cc2Cl)cc1 [ML335]
